Measurements as given in the NIST ThermoML archive (doi:10.1016/j.jct.2015.11.010).
Numbers after ± are expanded uncertainties.

Key:
[1] = Crystal; for mass density: 101.33 kPa, X-ray diffraction
[2] = Molar enthalpy of transition or fusion; conditions: Crystal; DSC
[3] = molar heat capacity at constant pressure; conditions: 101.33 kPa, Crystal, Small sample (50 mg) DSC
[4] = molar enthalpy of vaporization or sublimation; conditions: 298.15 K; Crystal; Static calorimetry

| Compound | mass density ([1]; 150 K) [kg/m3] | mass density ([1]; 296 K) [kg/m3] | Triple point temperature ([1]; DSC) [K] | Molar enthalpy of transition or fusion [2] [kcal/mol] | molar heat capacity at constant pressure ([3]; 298.15 K) [J/K/mol] | molar heat capacity at constant pressure ([3]; 303.15 K) [J/K/mol] | molar heat capacity at constant pressure ([3]; 308.15 K) [J/K/mol] | molar heat capacity at constant pressure ([3]; 313.15 K) [J/K/mol] | molar heat capacity at constant pressure ([3]; 318.15 K) [J/K/mol] | molar heat capacity at constant pressure ([3]; 323.15 K) [J/K/mol] | molar heat capacity at constant pressure ([3]; 328.15 K) [J/K/mol] | molar heat capacity at constant pressure ([3]; 333.15 K) [J/K/mol] | molar enthalpy [4] [kcal/mol] |
| --- | --- | --- | --- | --- | --- | --- | --- | --- | --- | --- | --- | --- | --- |
| O.Sc1ncc[nH]1.Sc1ncc[nH]1 [2-mercaptoimidazole hemihydrate] | 1489.4 ± 7.3 |  |  |  |  |  |  |  |  |  |  |  |  |
| Sc1ncc[nH]1 [2-mercaptoimidazole] |  | 1424.1 ± 7 | 503.5 ± 0.8 | 4.18 ± 0.115 | 112 ± 7.7 | 112.4 ± 7.9 | 112.9 ± 7.9 | 112.6 ± 8.9 | 113.4 ± 8.6 | 114.3 ± 8.6 | 115.3 ± 8.6 | 116.5 ± 8.6 | 27.3 ± 0.335 |
